Consider one compound from US20040204409A1, “Bicyclic compounds as NR2B receptor antagonists” (priority 2003, published 2004).

This assay addresses T1, NR2B receptor (Rattus norvegicus, UniProt P35439+Q00960).
T1 construct: Membranes were prepared by homogenization of forebrain of male CD rats; from tissue; host or cells: rat forebrain P2 membrane
The assay can be described thus: NR2B Binding Assay (competition with [3H]-1-[(1S*,2S*)-2-hydroxy-2-(4-hydroxyphenyl)-1-methylethyl]-4-phenylpiperidin-4-ol on P2 membrane). The note with it: forebrain P2 membrane of male CD rats, 5 nM radioligand, 60 minutes at room temperature, pH7.4; read-out: Ki value with respect to binding affinity for the NR2B receptor. As for the experimental part: The activity of the bicyclic amide compounds of the present invention, as NR2B antagonists, is determined by their ability to inhibit the binding of NR2B subunit at its receptor sites employing radioactive ligands.
The NR2B antagonist activity of the bicyclic amide compounds is evaluated by using the standard assay procedure described in, for example, J. Pharmacol., 331, pp117-126, 1997. This method essentially involves determining the concentration of the individual compound required to reduce the amount of radiolabelled NR2B ligands by 50% at their receptor sites, thereby affording characteristic IC50 values for each compound tested. More specifically, the assay is carried out as follows. […]
For the saturation assay, receptor saturation was determined by incubating [^3H]-1-[(1S*,2S*)-2-hydroxy-2-(4-hydroxyphenyl)-1-methylethyl]-4-phenylpiperidin-4-ol and 50 μg protein of P2 membrane for 60 minutes at room temperature in a final 100 μl of incubation buffer (50 mM Tris HCl, pH7.4). Total and non-specific bindings (in the presence of 10 μM of unlabeled 1-[(1S*,2S*)-2-hydroxy-2-(4-hydroxyphenyl)-1-methylethyl]-4-phenylpiperidin-4-ol) were determined in a range of [3H]-1-[(1S*,2S*)-2-hydroxy-2-(4-hydroxyphenyl)-1-methylethyl]-4-phenylpiperidin-4-ol concentrations (0.625 nM to 60 nM). […]

T1 sequence (Q00960 27-1482, other chains not shown): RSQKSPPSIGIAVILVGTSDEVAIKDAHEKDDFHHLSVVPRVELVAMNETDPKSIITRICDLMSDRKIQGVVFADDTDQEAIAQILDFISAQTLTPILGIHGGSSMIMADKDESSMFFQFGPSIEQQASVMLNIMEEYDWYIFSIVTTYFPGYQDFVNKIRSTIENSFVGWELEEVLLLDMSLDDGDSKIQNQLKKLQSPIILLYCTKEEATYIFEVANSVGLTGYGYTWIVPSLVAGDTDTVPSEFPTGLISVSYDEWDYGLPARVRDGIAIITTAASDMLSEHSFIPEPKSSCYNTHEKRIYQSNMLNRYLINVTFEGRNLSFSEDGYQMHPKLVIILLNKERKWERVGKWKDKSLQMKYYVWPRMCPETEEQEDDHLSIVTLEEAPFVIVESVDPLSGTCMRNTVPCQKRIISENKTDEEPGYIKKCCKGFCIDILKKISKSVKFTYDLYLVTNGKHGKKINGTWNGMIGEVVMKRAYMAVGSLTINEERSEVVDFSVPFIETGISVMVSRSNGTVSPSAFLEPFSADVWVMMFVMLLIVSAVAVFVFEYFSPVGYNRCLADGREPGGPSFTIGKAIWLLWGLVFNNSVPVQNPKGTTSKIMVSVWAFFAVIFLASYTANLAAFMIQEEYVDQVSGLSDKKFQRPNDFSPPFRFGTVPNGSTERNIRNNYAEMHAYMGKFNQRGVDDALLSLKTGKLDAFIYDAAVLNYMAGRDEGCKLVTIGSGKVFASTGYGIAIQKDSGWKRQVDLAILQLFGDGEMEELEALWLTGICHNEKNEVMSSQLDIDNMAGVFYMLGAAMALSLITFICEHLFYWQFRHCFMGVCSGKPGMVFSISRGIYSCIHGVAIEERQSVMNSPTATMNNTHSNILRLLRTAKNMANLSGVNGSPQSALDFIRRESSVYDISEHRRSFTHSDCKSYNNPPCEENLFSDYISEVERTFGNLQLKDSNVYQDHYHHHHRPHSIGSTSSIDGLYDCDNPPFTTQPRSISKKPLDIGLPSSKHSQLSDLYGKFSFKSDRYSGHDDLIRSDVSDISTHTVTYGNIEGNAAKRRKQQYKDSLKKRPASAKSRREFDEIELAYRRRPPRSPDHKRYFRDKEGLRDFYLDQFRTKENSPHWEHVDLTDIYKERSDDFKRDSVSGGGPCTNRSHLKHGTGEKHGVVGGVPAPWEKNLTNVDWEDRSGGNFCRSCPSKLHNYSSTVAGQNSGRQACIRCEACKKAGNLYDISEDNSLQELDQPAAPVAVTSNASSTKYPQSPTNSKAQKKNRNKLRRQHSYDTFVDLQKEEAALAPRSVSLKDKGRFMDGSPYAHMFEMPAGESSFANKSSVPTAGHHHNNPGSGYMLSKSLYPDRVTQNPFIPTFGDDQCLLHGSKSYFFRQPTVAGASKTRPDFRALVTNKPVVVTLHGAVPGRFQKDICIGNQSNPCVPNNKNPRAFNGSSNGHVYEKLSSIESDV

Turning to `O=C(NCc1ccc2[nH]c(Cc3ccccc3)cc2c1)c1ccc(O)cc1` [Example 8, N-[(2-benzyl-1H-indol-5-yl)methyl]-4-hydroxybenzamide], the Ki turned out to be 2 nM.

By Ki is commonly meant a measure of affinity in units of concentration, obtained from inhibition or displacement.
